≈ marks a conversion by molar mass, not a printed value. Like-named read-outs stand apart in the source and are kept apart here.
Tests used:
bovine cytochrome bc1 = biological target: T1, bovine cytochrome bc1 (Bos taurus, UniProt P00157); assay: Bovine cytochrome bc1 activity assay; type: biochemical; settings: triplicate
T1 construct: Crude mitochondria were isolated from fresh bovine hearts; from tissue; host or cells: bovine heart mitochondria
Description: Cytochrome bc1 was purified from mitochondria, as previously described. Crude mitochondria were isolated from fresh bovine hearts and solubilized with the addition of dodecyl-maltoside (DDM). The solubilized protein was loaded onto a 50 mL DEAE Sepharose CL6B (GE Healthcare, Uppsala, Sweden) column pre-equilibrated in and washed with three column volumes of 50 mM KPi pH 7.5, 250 mM NaCl, 0.5 mM EDTA, and 0.01% DDM. The bound protein was eluted along a linear gradient from 250 to 500 mM NaCl. Cytochrome bc1 fractions were pooled and concentrated in a centrifugal ultrafilter (MWCO. 100 kDa) and loaded onto a 120 mL Sephacryl S300 column (GE Healthcare, Uppsala, Sweden) equilibrated in and eluted at a flow rate of 0.5 mL/min with 20 mM KMOPS pH 7.2, 100 mM NaCl, 0.5 mM EDTA, 0.01% DDM. Cytochrome bc1 fractions were pooled and concentrated to 40 mg/mL. PEG fractionation with an increasing amount of PEG4000 was used to precipitate cytochrome bc1. […] The inhibitors were dissolved in DMSO at the concentration of 50 mM and 5 μM cytochrome bc1 was incubated with 50 μM inhibitor (10-fold molar excess) at 4 °C for 12 h.
The inhibitors were added to the assay without prior incubation. The reaction was initiated by the addition of 50 μM decylubiquinol (Sigma-Aldrich, St. Louis, MO, USA).

[1] = test system: Plasmodium falciparum TM90C2B; settings: atovaquone resistant parasite TM90C2B; cited from earlier work
[2] = test system: Plasmodium falciparum 3D7; settings: drug sensitive P. falciparum 3D7 whole cells; cited from earlier work
[3] = biological target: T2, Pfbc1 (P. falciparum cytochrome bc1) (Plasmodium falciparum, UniProt Q02768); settings: cited from earlier work
T2 sequence (Q02768 1-376): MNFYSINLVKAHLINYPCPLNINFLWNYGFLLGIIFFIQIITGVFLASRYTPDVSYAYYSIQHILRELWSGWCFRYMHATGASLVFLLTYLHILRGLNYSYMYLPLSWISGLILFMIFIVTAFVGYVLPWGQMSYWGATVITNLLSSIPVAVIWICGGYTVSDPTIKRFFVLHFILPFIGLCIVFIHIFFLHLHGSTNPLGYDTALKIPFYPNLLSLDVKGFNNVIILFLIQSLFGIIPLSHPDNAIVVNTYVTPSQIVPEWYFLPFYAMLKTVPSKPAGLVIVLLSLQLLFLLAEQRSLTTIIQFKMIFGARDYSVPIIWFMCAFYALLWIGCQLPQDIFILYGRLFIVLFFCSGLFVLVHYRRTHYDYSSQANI

[4] = design: method as in doi:10.1039/C5MD00062A; settings: at pH 1; cited from earlier work
[5] = test system: Plasmodium falciparum FCR3A strain; design: method as in PMID 23234553; settings: FCR3A strain used as atovaquone-resistant parasite (footnote †); read-out: IC50 (nM) (TM90C2B); cited from earlier work
[6] = biological target: PfNDH2 (P. falciparum mitochondrial type II NADH: ubiquinone oxidoreductase); settings: cited from earlier work
[7] = biological target: T2, Pfbc1 (P. falciparum cytochrome bc1); assay: Pf cytochrome bc1 enzyme inhibition; type: biochemical; settings: at 100 nM; single point concentration only, full IC50 not available; measured in this work
Text: Table 1 Inhibition profiles of selected antimalarial compounds against whole cells of Plasmodium falciparum (Pf) (3D7 and TM90C2B strains) and individual mitochondrial enzymes. | column: IC50 (nM) (Pfbc1) *

[8] = single point concentration only, full IC50 not available

Row | SMILES | inhibition at 0.1 µM (bovine cytochrome bc1) | inhibition at 1 µM (bovine cytochrome bc1) | IC50 [1] | IC50 [2] | IC50 [3] | aqueous solubility [4] | IC50 [5] | IC50 [6, 8] | IC50 (nM) (TM90C2B) [1] | IC50 [6] | inhibition at 0.1 µM [7]
1 | COc1cc2[nH]c(C)c(-c3ccc(Oc4ccc(OC(F)(F)F)cc4)cc3)c(=O)c2cc1Cl [ELQ300] | 22 ± 5% | 51 ± 7% | 1.7 nM | 2.2 nM | 0.56 nM | < 1 µM | – | – | – | – | –
2 | Cc1[nH]c(CO)c(-c2ccc(Oc3ccc(OC(F)(F)F)cc3)cc2)c(=O)c1Cl [GSK932121] | 65 ± 4% | 82 ± 5% | – | 6 nM | 7 nM | – | 6 nM | > 10000 nM | – | – | –
3 | Cc1[nH]c(C)c(-c2ccc(Oc3ccc(OC(F)(F)F)cc3)cc2)c(=O)c1Cl [GW844520] | 59 ± 6% | 79 ± 3% | – | 5 nM | 2 nM | – | 2 nM | > 10000 nM | – | – | –
4 | Cc1c(-c2ccc(Cc3ccc(OC(F)(F)F)cc3)cc2)n(O)c2ccccc2c1=O [RKA066] | 81 ± 4% | 93 ± 2% | 217 ± 18 nM | 22 ± 0.4 nM | 28 nM | – | – | – | triple-digit nanomolar | 55 nM | –
5 | COc1ccc2c(=O)c(C)c(-c3cncc(-c4ccc(OC(F)(F)F)cc4)c3)[nH]c2c1 [SCR0911] | 9 ± 2% | 72 ± 5% | 7.2 nM | 12 ± 3 nM | – | 7.8 µM (≈ 3.33 µg/mL) | – | > 1000 nM | – | – | 80%
6 | Cc1[nH]c2ccccc2c(=O)c1-c1ccc(Cc2ccc(OC(F)(F)F)cc2)cc1 [WDH-1U-4] | 7 ± 1% | 61 ± 3% | 5 ± 2 nM | 36 ± 6 nM | < 10 nM | – | – | – | – | 492 nM | –

Reference: article PMC9330653, “Targeting the Ubiquinol-Reduction (Qi) Site of the Mitochondrial Cytochrome bc1 Complex for the Development of Next Generation Quinolone Antimalarials” (Biology, 2022)
